Results taken from ChEMBL document CHEMBL1201862, “PubChem BioAssay data set” (2004).
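Where inhibition never reached the appropriate level, the endpoint shown equals the highest concentration tested. Otherwise, values were interpolated linearly from a five-concentration, 48-hour dose response in 96-well plates. Abbreviation: GI50, concentration required for 50% inhibition of growth.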 Calls of active or inactive are those of the source. No stated cut-off is given here; in the data, active = GI50 up to about 1.1 µM and inactive = higher.

Legend:
Test in all cases: NCI anticancer screen, dose series, 48 h
EKVX = system: EKVX
Malme-3M = system: Malme-3M
MOLT-4 = system: MOLT-4
SF-539 = system: SF-539
SK-MEL-28 = system: SK-MEL-28
SF-295 = system: SF-295
UACC-62 = system: UACC-62
SK-MEL-2 = system: SK-MEL-2
RPMI-8226 = system: RPMI-8226
HCC 2998 = system: HCC 2998
RXF 393 = system: RXF 393
ACHN = system: ACHN
OVCAR-4 = system: OVCAR-4
HOP-92 = system: HOP-92
TK-10 = system: TK-10
HCT-116 = system: HCT-116
IGROV-1 = system: IGROV-1
NCI-H23 = system: NCI-H23
NCI-H460 = system: NCI-H460
HCT-15 = system: HCT-15

| SMILES | GI50 (EKVX) | GI50 (Malme-3M) | GI50 (MOLT-4) | GI50 (SF-539) | GI50 (SK-MEL-28) | GI50 (SF-295) | GI50 (UACC-62) | GI50 (SK-MEL-2) | GI50 (RPMI-8226) | GI50 (HCC 2998) | GI50 (RXF 393) | GI50 (ACHN) | GI50 (OVCAR-4) | GI50 (HOP-92) | GI50 (TK-10) | GI50 (HCT-116) | GI50 (IGROV-1) | GI50 (NCI-H23) | GI50 (NCI-H460) | GI50 (HCT-15) |
| --- | --- | --- | --- | --- | --- | --- | --- | --- | --- | --- | --- | --- | --- | --- | --- | --- | --- | --- | --- | --- |
| CCC1=C(C(C)=O)[C@@H]2CCCCC[C@@H](C(=O)OC)C2C1=O (stereo not given in full) | > 100 µM (inactive) | > 100 µM (inactive) | > 100 µM (inactive) | > 100 µM (inactive) | > 100 µM (inactive) | > 100 µM (inactive) | > 100 µM (inactive) | > 100 µM (inactive) | > 100 µM (inactive) | > 100 µM (inactive) | > 100 µM (inactive) | > 100 µM (inactive) | > 100 µM (inactive) | > 100 µM (inactive) | > 100 µM (inactive) | > 100 µM (inactive) | > 100 µM (inactive) | > 100 µM (inactive) | > 100 µM (inactive) | > 100 µM |
| Cc1ccc(S(=O)(=O)C2=c3ncccc3=C3C(=O)c4ccccc4C(=O)C32)cc1 (stereo not given) | 69 µM (inactive) | 53.7 µM (inactive) | > 100 µM (inactive) | 2.75 µM (inactive) | > 100 µM (inactive) | 43.1 µM (inactive) | 23 µM (inactive) | 3.13 µM (inactive) | > 100 µM (inactive) | > 10 µM (inactive) | 16 µM (inactive) | 51.3 µM (inactive) | 15.8 µM (inactive) | 25.4 µM (inactive) | 8.65 µM (inactive) | 71.6 µM (inactive) | 13.9 µM (inactive) | 64 µM (inactive) | 7.11 µM (inactive) | > 10 µM |
